The target of one test is T1, hCA IX (Homo sapiens, UniProt Q16790).
T1 construct: His-tag (N); made in house; host or cells: Escherichia coli BL21 (DE3)
The test is described as follows: CA inhibition, stopped-flow CO2 hydration assay. Particulars: stopped-flow technique; mean of three experiments, errors ±5–10%. Format: biochemical.

The next test concerns the target T2, hCA VB (Homo sapiens, UniProt Q9Y2D0).
T2 construct: His-tag (N); made in house; host or cells: Escherichia coli BL21 (DE3)
As to the kind of experiment: CA inhibition, stopped-flow CO2 hydration assay. The following applies: stopped-flow technique; mean of three experiments, errors ±5–10%. Format: biochemical.

The target of another test is T3, hCA II (Homo sapiens, UniProt P00918).
T3 construct: His-tag (N); made in house; host or cells: Escherichia coli BL21 (DE3)
The test is described as follows: CA inhibition, stopped-flow CO2 hydration assay. Format: biochemical. Particulars: for Ki: stopped-flow technique, mean of three experiments, errors ±5–10%.

The next test deals with hCA VII (Homo sapiens, UniProt P43166). As to the kind of experiment: CA inhibition, stopped-flow CO2 hydration assay.
The target in another test is T4, hCA VA (Homo sapiens, UniProt P35218).
T4 construct: His-tag (N); made in house; host or cells: Escherichia coli BL21 (DE3)
The test is described as follows: CA inhibition, stopped-flow CO2 hydration assay. Format: biochemical. The following applies: stopped-flow technique; mean of three experiments, errors ±5–10%.

In another test the target is T5, hCA I (Homo sapiens, UniProt P00915).
T5 construct: His-tag (N); made in house; host or cells: Escherichia coli BL21 (DE3)
As to the kind of experiment: CA inhibition, stopped-flow CO2 hydration assay. Format: biochemical. The following applies: for Ki: stopped-flow technique, mean of three experiments, errors ±5–10%.

The target of another test is T6, Recombinant human MAO-B (Homo sapiens, UniProt P27338).
T6 construct: purchased Sigma-Aldrich
T6 sequence (P27338 1-520): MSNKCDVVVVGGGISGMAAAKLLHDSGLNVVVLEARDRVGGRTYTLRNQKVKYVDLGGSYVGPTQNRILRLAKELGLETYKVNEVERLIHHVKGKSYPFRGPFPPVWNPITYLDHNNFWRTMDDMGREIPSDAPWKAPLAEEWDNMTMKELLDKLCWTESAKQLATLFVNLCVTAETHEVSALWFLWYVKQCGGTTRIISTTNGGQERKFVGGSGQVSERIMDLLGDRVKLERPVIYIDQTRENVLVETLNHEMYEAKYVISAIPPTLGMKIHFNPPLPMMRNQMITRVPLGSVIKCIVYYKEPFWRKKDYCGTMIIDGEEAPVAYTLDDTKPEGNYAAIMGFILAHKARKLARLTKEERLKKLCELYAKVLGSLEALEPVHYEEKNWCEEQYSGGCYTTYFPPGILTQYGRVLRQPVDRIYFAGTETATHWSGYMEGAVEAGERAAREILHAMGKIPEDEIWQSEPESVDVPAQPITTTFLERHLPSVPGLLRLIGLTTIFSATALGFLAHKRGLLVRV
As to the kind of experiment: In vitro MAO-B inhibition assay (kynuramine, fluorescence). Format: biochemical. The following applies: kynuramine substrate, mean ± S.D. of three independent experiments.

A further test addresses T7, hCA XII (Homo sapiens, UniProt O43570).
T7 construct: His-tag (N); made in house; host or cells: Escherichia coli BL21 (DE3)
As to the kind of experiment: CA inhibition, stopped-flow CO2 hydration assay. Format: biochemical. The following applies: stopped-flow technique; mean of three experiments, errors ±5–10%.

In a further test the target is T8, Recombinant human MAO-A (Homo sapiens, UniProt P21397).
T8 construct: purchased Sigma-Aldrich
T8 sequence (P21397 1-527): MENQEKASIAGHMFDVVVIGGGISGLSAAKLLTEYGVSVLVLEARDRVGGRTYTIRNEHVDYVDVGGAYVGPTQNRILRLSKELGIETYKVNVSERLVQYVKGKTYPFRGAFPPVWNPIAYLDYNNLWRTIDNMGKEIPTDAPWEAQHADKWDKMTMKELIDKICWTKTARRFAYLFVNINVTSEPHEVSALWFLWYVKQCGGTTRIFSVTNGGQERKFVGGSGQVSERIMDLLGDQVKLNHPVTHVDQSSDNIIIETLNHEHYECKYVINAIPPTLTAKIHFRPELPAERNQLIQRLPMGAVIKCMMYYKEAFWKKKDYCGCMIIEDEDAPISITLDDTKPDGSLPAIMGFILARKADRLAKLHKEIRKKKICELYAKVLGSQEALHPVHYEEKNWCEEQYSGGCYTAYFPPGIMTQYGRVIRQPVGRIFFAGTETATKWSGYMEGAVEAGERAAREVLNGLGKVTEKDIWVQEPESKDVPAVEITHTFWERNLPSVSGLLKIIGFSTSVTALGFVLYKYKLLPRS
The test is described as follows: In vitro MAO-A inhibition assay (kynuramine, fluorescence). Format: biochemical. Particulars: kynuramine substrate, mean ± S.D. of three independent experiments.

In another test the test system is MAO. Details: method as in PMID 30809547. The following applies: cited from earlier work.
The test system of the next test is MAO-B. More on the design: method as in PMID 7699569. Particulars: cited from earlier work.

Each structure is given as a SMILES string. Values joined by “and” are separate entries in the source; they are usually repeats but may differ in a detail not shown here. Identical values can stand only once.

T5 sequence (P00915 whole entry): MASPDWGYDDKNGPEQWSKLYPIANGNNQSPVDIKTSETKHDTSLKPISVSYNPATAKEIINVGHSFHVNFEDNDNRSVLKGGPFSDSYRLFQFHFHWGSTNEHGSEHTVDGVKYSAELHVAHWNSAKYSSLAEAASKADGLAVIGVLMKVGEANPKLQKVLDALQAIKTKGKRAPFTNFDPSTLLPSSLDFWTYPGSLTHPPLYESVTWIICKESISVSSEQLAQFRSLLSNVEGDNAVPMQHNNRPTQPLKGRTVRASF
T2 sequence (Q9Y2D0 34-317): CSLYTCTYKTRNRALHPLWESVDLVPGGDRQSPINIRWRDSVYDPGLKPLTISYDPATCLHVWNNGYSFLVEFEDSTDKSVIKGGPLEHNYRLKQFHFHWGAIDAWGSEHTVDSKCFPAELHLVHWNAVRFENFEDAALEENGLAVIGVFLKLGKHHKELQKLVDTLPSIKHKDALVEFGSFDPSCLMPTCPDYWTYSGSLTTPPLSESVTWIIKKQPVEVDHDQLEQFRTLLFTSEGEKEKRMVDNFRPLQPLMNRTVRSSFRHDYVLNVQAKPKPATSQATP
T4 sequence (P35218 39-305): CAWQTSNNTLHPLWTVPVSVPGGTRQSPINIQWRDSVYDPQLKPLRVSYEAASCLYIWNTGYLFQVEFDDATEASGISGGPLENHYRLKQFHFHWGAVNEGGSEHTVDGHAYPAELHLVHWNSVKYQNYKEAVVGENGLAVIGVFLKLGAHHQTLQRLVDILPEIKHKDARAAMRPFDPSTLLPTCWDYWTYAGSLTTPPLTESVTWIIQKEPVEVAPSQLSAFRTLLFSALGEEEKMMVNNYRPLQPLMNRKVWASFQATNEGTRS
Sequence of hCA VII (P43166 whole entry): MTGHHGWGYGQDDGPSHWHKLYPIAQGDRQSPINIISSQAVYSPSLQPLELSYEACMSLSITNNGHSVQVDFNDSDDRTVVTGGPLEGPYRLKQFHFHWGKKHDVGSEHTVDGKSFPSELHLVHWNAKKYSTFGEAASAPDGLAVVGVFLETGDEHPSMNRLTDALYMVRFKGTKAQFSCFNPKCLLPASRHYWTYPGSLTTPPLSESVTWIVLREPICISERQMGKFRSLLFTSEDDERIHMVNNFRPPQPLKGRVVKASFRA
T7 sequence (O43570 25-354): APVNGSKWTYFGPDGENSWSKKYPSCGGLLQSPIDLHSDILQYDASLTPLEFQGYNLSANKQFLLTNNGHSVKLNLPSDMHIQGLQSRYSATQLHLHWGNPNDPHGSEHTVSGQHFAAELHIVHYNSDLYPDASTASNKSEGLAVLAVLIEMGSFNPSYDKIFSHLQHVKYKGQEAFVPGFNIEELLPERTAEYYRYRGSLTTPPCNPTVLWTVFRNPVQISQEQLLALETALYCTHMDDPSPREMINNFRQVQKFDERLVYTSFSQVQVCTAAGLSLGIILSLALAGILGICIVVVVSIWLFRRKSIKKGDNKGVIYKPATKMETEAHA
Experimental for Recombinant human MAO-A: (§1) Kynuramine is a non-specific substrate and served as the substrate for both MAO isoforms. The MAOs metabolize kynuramine to produce 4-hydroxyquinoline, which was measured at the endpoint of the enzyme reactions by fluorescence spectrophotometry.
Experimental for Recombinant human MAO-B: as §1
Experimental for hCA II: (§2) The CO2 concentrations ranged from 1.7 to 17 mM for the determination of the kinetic parameters and inhibition constants. For each inhibitor, six traces of the initial 5–10% of the reaction were used in order to determine the initial velocity. The uncatalyzed reaction rates were determined in the same manner and subtracted from the total observed rates. Stock solutions of inhibitor (0.1 mM) were prepared in distilled water, and dilutions up to 0.01 nM were prepared. Solutions containing inhibitor and enzyme were preincubated for 15 min at room temperature prior to assay in order to allow the formation of the E−I complex. The inhibition constants were obtained as nonlinear least-squares protocols using PRISM 3 and are the mean from at least three different measurements.
Experimental for hCA IX: as §2
Experimental for hCA VA: as §2
Experimental for hCA VB: as §2
Experimental for hCA VII: as §2
Experimental for hCA XII: as §2

In the case of `Oc1ccc(/C=C/c2ccccc2)cc1Cl` [Compound 1], the Ki is 23.6 µM at hCA IX; 84.5 µM on hCA VB; 35.8 µM at hCA II; over 100 µM on hCA VII; 9 µM at hCA VA; 89.5 µM at hCA I. The compound also had a Ki at hCA XII of 2.7 µM. Also, the IC50 amounted to 0.156 ± 0.009 µM at Recombinant human MAO-B and 3.06 ± 0.1 µM on Recombinant human MAO-A.
For the compound `Oc1ccc(/C=C/c2ccc(Cl)cc2Cl)cc1Cl` [Compound 2], the Ki at hCA IX was 81.1 µM; on hCA VB it was 32.2 µM; at hCA II, over 100 µM; on hCA VII, 4.2 µM; at hCA VA, 37.2 µM; on hCA I, over 100 µM. This compound gave a Ki on hCA XII of 4.5 µM. Moreover, the IC50 came to 1.44 ± 0.035 µM at Recombinant human MAO-B and 2.02 ± 0.175 µM on Recombinant human MAO-A.
For the compound `Oc1ccc(/C=C/c2ccc(Cl)cc2Cl)cc1` [Compound 3], the Ki at hCA IX was over 100 µM; at hCA VB it was over 100 µM; on hCA II, over 100 µM; on hCA VII, 7.5 µM; at hCA VA it was 86 µM; at hCA I it was over 100 µM. The Ki on hCA XII was over 100 µM. For the same compound, the IC50 at Recombinant human MAO-B worked out at 1.52 ± 0.067 µM; on Recombinant human MAO-A, 1.79 ± 0.095 µM.
Regarding `Oc1ccc(/C=C/c2ccc(C(F)(F)F)cc2)cc1Cl` [Compound 4], the Ki came to 17.4 µM on hCA IX; 36.2 µM at hCA VB; 15.6 µM on hCA II; 0.7 µM on hCA VII; 70.9 µM on hCA VA; 86.8 µM at hCA I. Also, the affinity at hCA XII, expressed as Ki, was 6.9 µM. For the same compound, the “inhibition potency against hCA II weaker than against hCA VII” value against hCA II (hCA II vs hCA VII) is reported as “about 22 fold”. The “inhibitory activities against hCA I, VA, and VB lower than against hCA VII” value against hCA I (hCA I, VA, VB vs hCA VII) is “up to 120 fold”. For the same compound, the IC50 at Recombinant human MAO-B is 0.011 ± 0.0065 µM; at Recombinant human MAO-A it was 0.43 µM and 0.433 µM.
As for `Oc1ccc(/C=C/c2ccc(C(F)(F)F)cc2)cc1` [Compound 5], the Ki was 94.6 µM on hCA IX; 8.7 µM at hCA VB; 43.4 µM at hCA II; over 100 µM on hCA VII; 83 µM at hCA VA; over 100 µM on hCA I. The Ki at hCA XII is over 100 µM. The IC50 at Recombinant human MAO-B worked out at 14.2 ± 1.82 µM; at Recombinant human MAO-A, 9.77 ± 0.553 µM.
On to `N#Cc1ccc(/C=C/c2ccc(O)cc2)cc1` [Compound 6], for which the Ki at hCA IX was over 100 µM; on hCA VB, 9.5 µM; at hCA II it was 75.3 µM; on hCA VII, 7.4 µM; at hCA VA, over 100 µM; at hCA I it was over 100 µM. Moreover, the Ki at hCA XII is over 100 µM. Also, the values for the IC50 at Recombinant human MAO-B and on Recombinant human MAO-A were 0.103 ± 0.003 µM and 2.01 ± 0.033 µM, respectively.
Take `COc1ccc(/C=C/c2ccc(O)cc2)cc1` [Compound 7]: the Ki was 81.8 µM at hCA IX; 9.7 µM on hCA VB; over 100 µM at hCA II; 9.4 µM on hCA VII; over 100 µM on hCA VA; over 100 µM at hCA I. The Ki on hCA XII is over 100 µM. For the same compound, the values for the IC50 on Recombinant human MAO-B and on Recombinant human MAO-A were 0.185 ± 0.009 µM and 2.71 ± 0.016 µM, respectively.
Consider `Oc1ccc(C=Cc2cc(O)cc(O)c2)cc1` [RSV, 3,4′,5-trihydroxystilbene, reference compound], for which the inhibition constant (Ki) worked out at 0.8 µM on hCA IX; 4.6 µM at hCA VB; 2.8 µM at hCA II; 4.3 µM on hCA VII; 4.7 µM at hCA VA; 2.2 µM at hCA I. Affinity on hCA XII was put at a Ki of 0.9 µM. Moreover, the “mechanism of MAO inhibition” value with MAO is given as “competitive”. At Recombinant human MAO-B, the half-maximal inhibitory concentration (IC50) is over 100 µM.
For `C[C@H](NCc1ccc(OCc2cccc(F)c2)cc1)C(N)=O` [safinamide], the IC50 with MAO-B was […].

A word on the Ki: it is the dissociation constant of the complex between target and ligand, obtained from inhibition or displacement. Usually IC50 stands for the concentration at which inhibition is half-maximal.

The values are drawn from paper PMC9694798, “Resveratrol Analogues as Dual Inhibitors of Monoamine Oxidase B and Carbonic Anhydrase VII: A New Multi-Target Combination for Neurodegenerative Diseases?” (Molecules, 2022).
